In PubChem BioAssay AID1963424 (Molecular Pharmacology Branch, DTP, NCI, 2024):
Where “and” joins values, the source holds several entries; their conditions need not be identical. Identical values can stand only once.

Tested on: 327498-153-R-J2-PDC complex spheroid growth, % test/control
Assay: Anticancer human tumor 327498-153-R-J2-PDC patient-derived uterine carcinosarcoma cell line growth inhibition [Asc]
Conditions: for viability, T/C: stronger effect = lower value
Procedure, shortened: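 Tumor cells were grown as multicellular spheroids with stromal HUVEC and mesenchymal stem cells and treated singly or in combination. Concentrations fell in half-log steps from the clinical Cmax, or from 10 microM where none was known.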
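Also: spheroids exposed to compound for 7 days after 3 days of growth.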
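For viability, T/C in this document: 100% = DMSO vehicle control wells.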

COc1c(OCCCN2CCOCC2)ccc2c3n(c(=NC(=O)c4cnc(N)nc4)nc12)CCN3 + CCN1C(C(=O)NC23CCC(C(=O)O)(CC2)CC3)C(c2cccc(Cl)c2F)C2(C(=O)Nc3cc(Cl)ccc32)C12CCCCC2
IC50 (curve of first compound, second compound 0.03 µM): 81.8 nM | IC50 (curve of first compound, second compound 0.0949 µM): 33.5 nM | IC50 (curve of first compound, second compound 0.3 µM): < 3.16 nM | IC50 (curve of first compound, second compound 0.949 µM): < 3.16 nM | IC50 (curve of first compound, second compound 3 µM): < 3.16 nM | viability, T/C (second compound 0.03 µM, first compound 0.00316 µM): 84.5% | viability, T/C (second compound 0.03 µM, first compound 0.01 µM): 90.5% | viability, T/C (second compound 0.03 µM, first compound 0.0316 µM): 76.5% | viability, T/C (second compound 0.03 µM, first compound 0.1 µM): 41.8% | viability, T/C (second compound 0.03 µM, first compound 0.316 µM): 21.1% | viability, T/C (second compound 0.03 µM, first compound 1 µM): 5.21% | viability, T/C (second compound 0.0949 µM, first compound 0.00316 µM): 80.3% | viability, T/C (second compound 0.0949 µM, first compound 0.01 µM): 73.3% | viability, T/C (second compound 0.0949 µM, first compound 0.0316 µM): 50.4% | viability, T/C (second compound 0.0949 µM, first compound 0.1 µM): 25.6% | viability, T/C (second compound 0.0949 µM, first compound 0.316 µM): 12.3% | viability, T/C (second compound 0.0949 µM, first compound 1 µM): 2.62% | viability, T/C (second compound 0.3 µM, first compound 0.00316 µM): 40.1% | viability, T/C (second compound 0.3 µM, first compound 0.01 µM): 33.8% | viability, T/C (second compound 0.3 µM, first compound 0.0316 µM): 24.4% | viability, T/C (second compound 0.3 µM, first compound 0.1 µM): 10.8% | viability, T/C (second compound 0.3 µM, first compound 0.316 µM): 6.23% | viability, T/C (second compound 0.3 µM, first compound 1 µM): 0.74% | viability, T/C (second compound 0.949 µM, first compound 0.00316 µM): 12.2% | viability, T/C (second compound 0.949 µM, first compound 0.01 µM): 9.4% | viability, T/C (second compound 0.949 µM, first compound 0.0316 µM): 5.86% | viability, T/C (second compound 0.949 µM, first compound 0.1 µM): 2.63% | viability, T/C (second compound 0.949 µM, first compound 0.316 µM): 1.42% | viability, T/C (second compound 0.949 µM, first compound 1 µM): 0.49% | viability, T/C (second compound 3 µM, first compound 0.00316 µM): 4.48% | viability, T/C (second compound 3 µM, first compound 0.01 µM): 3.3% | viability, T/C (second compound 3 µM, first compound 0.0316 µM): 2.05% | viability, T/C (second compound 3 µM, first compound 0.1 µM): 1.31% | viability, T/C (second compound 3 µM, first compound 0.316 µM): 0.47% | viability, T/C (second compound 3 µM, first compound 1 µM): 0.37%

CCN1C(C(=O)NC23CCC(C(=O)O)(CC2)CC3)C(c2cccc(Cl)c2F)C2(C(=O)Nc3cc(Cl)ccc32)C12CCCCC2 (stereo not drawn)
viability, T/C (compound 0.00949 µM): 90.4% and 97.6% | viability, T/C (compound 0.03 µM): 88.7% [middle of 15 runs] | viability, T/C (compound 0.0949 µM): 74.7% [middle of 15 runs] | viability, T/C (compound 0.3 µM): 40.5% [middle of 15 runs] | viability, T/C (compound 0.949 µM): 11.1% [middle of 15 runs] | viability, T/C (compound 3 µM): 4% [middle of 15 runs] | IC50 (compound alone, run of 09/27/2022): 211 nM [middle of 13 runs] | IC50 (curve of compound): 174 nM and 252 nM

NC(=O)C(=Cn1cnc(-c2cc(C(F)(F)F)cc(C(F)(F)F)c2)n1)c1cncnc1 + Cc1c(S(C)(=O)=O)c(-c2cc(F)cc(N3CCN(c4ccc(NS(=O)(=O)c5ccc(NC(CCN6CCC(C(=O)OCCCP(=O)(O)O)CC6)CSc6ccccc6)c(S(=O)(=O)C(F)(F)F)c5)cc4)CC3)c2)c(-c2ccc(Cl)cc2)n1C(C)C
IC50 (curve of first compound, second compound 0.1 µM): 36.4 nM | IC50 (curve of first compound, second compound 0.316 µM): 39.4 nM | IC50 (curve of first compound, second compound 1 µM): 31.2 nM | IC50 (curve of first compound, second compound 3.16 µM): 30.5 nM | IC50 (curve of first compound, second compound 10 µM): 46.6 nM | viability, T/C (second compound 0.1 µM, first compound 0.000949 µM): 88.6% | viability, T/C (second compound 0.1 µM, first compound 0.003 µM): 91.2% | viability, T/C (second compound 0.1 µM, first compound 0.00949 µM): 84.6% | viability, T/C (second compound 0.1 µM, first compound 0.03 µM): 58.4% | viability, T/C (second compound 0.1 µM, first compound 0.0949 µM): 9.68% | viability, T/C (second compound 0.1 µM, first compound 0.3 µM): 0.77% | viability, T/C (second compound 0.316 µM, first compound 0.000949 µM): 98.2% | viability, T/C (second compound 0.316 µM, first compound 0.003 µM): 93.3% | viability, T/C (second compound 0.316 µM, first compound 0.00949 µM): 86.8% | viability, T/C (second compound 0.316 µM, first compound 0.03 µM): 64.3% | viability, T/C (second compound 0.316 µM, first compound 0.0949 µM): 4.86% | viability, T/C (second compound 0.316 µM, first compound 0.3 µM): 0.51% | viability, T/C (second compound 1 µM, first compound 0.000949 µM): 99.7% | viability, T/C (second compound 1 µM, first compound 0.003 µM): 94.6% | viability, T/C (second compound 1 µM, first compound 0.00949 µM): 87.1% | viability, T/C (second compound 1 µM, first compound 0.03 µM): 53.1% | viability, T/C (second compound 1 µM, first compound 0.0949 µM): 3.7% | viability, T/C (second compound 1 µM, first compound 0.3 µM): 1.44% | viability, T/C (second compound 3.16 µM, first compound 0.000949 µM): 95.8% | viability, T/C (second compound 3.16 µM, first compound 0.003 µM): 90.7% | viability, T/C (second compound 3.16 µM, first compound 0.00949 µM): 93.4% | viability, T/C (second compound 3.16 µM, first compound 0.03 µM): 50.5% | viability, T/C (second compound 3.16 µM, first compound 0.0949 µM): 4.58% | viability, T/C (second compound 3.16 µM, first compound 0.3 µM): 0.43% | viability, T/C (second compound 10 µM, first compound 0.000949 µM): 168% | viability, T/C (second compound 10 µM, first compound 0.003 µM): 168% | viability, T/C (second compound 10 µM, first compound 0.00949 µM): 168% | viability, T/C (second compound 10 µM, first compound 0.03 µM): 78.8% | viability, T/C (second compound 10 µM, first compound 0.0949 µM): 4.73% | viability, T/C (second compound 10 µM, first compound 0.3 µM): 0.54%
